Assay [1] deals with T1, CDK2 (Homo sapiens, UniProt P24941).
T1 construct: High-Throughput Measurement of Cellular Endogenous CDK2; endogenous in cells; host or cells: OVCAR3
The assay is described as follows: Inhibition of CDK2: phospho-Rb (S807/811) HTRF measurement in OVCAR3 cells, 24 h. It is filed as cell-based. Conditions: 24 h compound treatment, read-out: pRB_OVCAR3_24h. A digest of the protocol:
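OVCAR3 cells, seeded overnight, were exposed to compounds at 0.3 to 10,000 nM for 24 h, then lysed. Rb S807/811 phosphorylation read by HTRF (665/620 nm ratio) after 4 h detection at room temperature; data normalized to DMSO and IC50 from four-parameter logistic fit.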

Assay [2] deals with T1, CDK2. The assay is described as follows: High-throughput HTRF measurement of cellular endogenous CDK2 level (degradation, DC50/Dmax) in OVCAR3 cells, 6 h. It is filed as cell-based. To be noted: 6 h compound treatment, HTRF total CDK2, read-out: DC50_OVCAR3_6h. On the procedure: High-Throughput Measurement of Cellular Endogenous CDK2
Effects of compounds on cellular CDK2 level were monitored by a high-throughput HTRF assay.
To determine half maximal degradation concentration (DC50) and maximum degradation level (Dmax) values of compounds, cellular CDK2 level was measured in 96-well format using HTRF total CDK2 cellular kit (Cat #64CDK2TPEG) from Cisbio.
On Day 1, OVCAR3 cells were seeded into 96-well tissue-culture treated plates at 20,000 cells/well in 200 μL and incubated overnight at 37° C. in CO2 atmosphere. On Day 2 cells were treated with compounds at concentration ranging from 0.03 to 1,000 nM using HP D300 digital dispenser. 6 hours after compound treatment, cell culture media was removed by flicking the plate and tapping the plate against clean paper towel. Immediately 30 μL 1× lysis buffer was supplemented from the kit and added to each well and the plate is incubated at room temperature on shaker for 30 min. After homogenization by pipetting up and down, 8 μL cell lysate from 96-well cell culture plate was transferred to 384-well small volume white detection plate. 2 μL premixed detection solution was added and the plate is covered with sealer. To prepare the detection solution, d2 conjugated-CDK2 antibody and Eu-cryptate conjugated CDK2 antibody were diluted into detection buffer following manufacturer's instruction. Detection plates were incubated overnight at room temperature and read on ClarioStar (BMG Labtech) in TR-FRET mode (665 nM and 620 nM). The TR-FRET ratio (665 nM/620 nM) was plotted against the compound concentration and normalized to DMSO controls (0% degradation) and lysis buffer controls (100% degradation). Half maximal degradation concentration (DC 50) […] were calculated with a four-parameter logistic fit using GraphPad Prism (version 8; La Jolla, CA).
In the table below, AA indicates a DC50 of greater than or equal to 0.5 nM but less than 1 nM; A indicates a DC50 of greater than or equal to 1 nM but less than or equal to 10 nM; B indicates a DC50 of greater than 10 nM but less than or equal to 100 nM; C indicates a DC50 of greater than 100 nM but less than or equal to 1 μM; and D indicates a DC50 of greater than 1 μM […] but less than or equal to 5 μM. NT means not tested.
(In TR-FRET formats the signal depends on donor and acceptor labels being close together.)

The source of these data is patent US20260167623A1 (NIKANG THERAPEUTICS, INC., priority 2022, published 2026).

As to `Cn1nc(N2CCC(=O)NC2=O)c2ccc(C3CCN(Cc4cccc(S(=O)(=O)N5CCC(Nc6ncc(C(F)(F)F)cn6)CC5)c4)CC3)cc21` [Example 1], the IC50 at CDK2 [1] lay in the range of 1 to 100 nM. At CDK2 [2], the DC50 lay in the range of 1 to 10 nM.
On to `CC(C)c1cnc(NC2CCN(S(=O)(=O)c3cccc(N4CCC(CN5CCC(c6ccc7c(N8CCC(=O)NC8=O)nn(C)c7c6)CC5)CC4)c3)CC2)nc1` [Example 244, 1-(6-(1-((1-(3-((4-((5-isopropylpyrimidin-2-yl)amino)piperidin-1-yl)sulfonyl)phenyl)piperidin-4-yl)methyl)piperidin-4-yl)-1-methyl-1H-indazol-3-yl)dihydropyrimidine-2,4(1H,3H)-dione], for which the IC50 on CDK2 [1] lay within 1 to 100 nM. In addition, the DC50 on CDK2 [2] fell in the range of 1 to 10 nM.
For `Cn1nc(N2CCC(=O)NC2=O)c2ccc(C3CCN(CC4CCN(c5cccc(S(=O)(=O)N6CCC(Nc7ncc(Cl)cn7)CC6)c5)CC4)CC3)c(F)c21` [Example 95, 1-(6-(1-((1-(3-((4-((5-chloropyrimidin-2-yl)amino)piperidin-1-yl)sulfonyl)phenyl)-piperidin-4-yl)methyl)piperidin-4-yl)-7-fluoro-1-methyl-1H-indazol-3-yl)dihydropyrimidine-2,4(1H,3H)-dione], at CDK2 [1], the IC50 lay within 1 to 100 nM. For the same compound, the DC50 on CDK2 [2] is 1 to 10 nM.
Regarding `Cn1nc(N2CCC(=O)NC2=O)c2ccc(C3CCN(CC4CCN(c5cc(S(=O)(=O)N6CCC(Nc7ncc(Cl)cn7)CC6)ccc5C#N)CC4)CC3)c(F)c21` [Example 150, 4-((4-((5-chloropyrimidin-2-yl)amino)piperidin-1-yl)sulfonyl)-2-(4-((4-(3-(2,4-dioxotetrahydropyrimidin-1(2H)-yl)-7-fluoro-1-methyl-1H-indazol-6-yl)piperidin-1-yl)methyl)piperidin-1-yl)benzonitrile], on CDK2 [1], the IC50 is 1 to 100 nM. Besides, at CDK2 [2], the DC50 was 10 to 100 nM.
For the compound `Cn1nc(N2CCC(=O)NC2=O)c2ccc(C3CCN(CCCc4cccc(S(=O)(=O)N5CCC(Nc6ncc(OC(F)F)cn6)CC5)c4)CC3)cc21` [Example 86, 1-(6-(1-(3-(3-((4-((5-(difluoromethoxy)-pyrimidin-2-yl)amino)piperidin-1-yl)sulfonyl)phenyl)propyl)piperidin-4-yl)-1-methyl-1H-indazol-3-yl)dihydropyrimidine-2,4(1H,3H)-dione], the IC50 on CDK2 [1] is 1 to 100 nM. Besides, the DC50 on CDK2 [2] lay within 10 to 100 nM.
For `Cn1nc(N2CCC(=O)NC2=O)c2cc(F)c(C3CCN(CC4CCN(c5cccc(S(=O)(=O)N6CCC(Nc7ncc(C(F)(F)F)cn7)CC6)c5)CC4)CC3)cc21` [Example 100, 1-(5-fluoro-1-methyl-6-(1-((1-(3-((4-((5-(trifluoromethyl)pyrimidin-2-yl)amino)-piperidin-1-yl)sulfonyl)phenyl)piperidin-4-yl)methyl)piperidin-4-yl)-1H-indazol-3-yl)dihydropyrimidine-2,4(1H,3H)-dione], in that order: 1 to 100 nM and 10 to 100 nM.
In the same order, the values of `Cn1c(=O)n(C2CCC(=O)NC2=O)c2cccc(N3CCN(CC4CCN(c5cc(S(=O)(=O)N6CCC(Nc7ncc(C(F)(F)F)cn7)CC6)ccc5C#N)CC4)CC3)c21` (stereo not shown) [Example 217, 2-(4-((4-(1-(2,6-dioxopiperidin-3-yl)-3-methyl-2-oxo-2,3-dihydro-1H-benzo[d]imidazol-4-yl)piperazin-1-yl)methyl)piperidin-1-yl)-4-((4-((5-(trifluoromethyl)pyrimidin-2-yl)amino)piperidin-1-yl)sulfonyl)benzonitrile] are 1 to 100 nM and 10 to 100 nM.
Regarding `Cn1nc(N2CCC(=O)NC2=O)c2ccc(C3CCN(CC4CCN(c5cccc(S(=O)(=O)N6CC[C@H](Nc7ncc(Cl)cn7)[C@H](F)C6)c5)CC4)CC3)cc21` (racemic) [Example 202, Rac-1-(6-(1-((1-(3-(((3R,4S)-4-((5-chloropyrimidin-2-yl)amino)-3-fluoropiperidin-1-yl)sulfonyl)phenyl)piperidin-4-yl)methyl)piperidin-4-yl)-1-methyl-1H-indazol-3-yl)dihydropyrimidine-2,4(1H,3H)-dione], the IC50 on CDK2 [1] lay within 1 to 100 nM. The DC50 on CDK2 [2] is 1 to 10 nM.
In the same order, the values of `Cn1c(=O)n(C2CCC(=O)NC2=O)c2c(F)ccc(C3CCN(CC4CCN(c5cc(S(=O)(=O)N6CCC(Nc7ncc(Cl)cn7)CC6)ccc5C#N)CC4)CC3)c21` (stereo not shown) [Example 220, 4-((4-((5-chloropyrimidin-2-yl)amino)piperidin-1-yl)sulfonyl)-2-(4-((4-(1-(2,6-dioxopiperidin-3-yl)-7-fluoro-3-methyl-2-oxo-2,3-dihydro-1H-benzo[d]imidazol-4-yl)piperidin-1-yl)methyl)piperidin-1-yl)benzonitrile] are 1 to 100 nM and 10 to 100 nM.
For `O=C1CCC(N2Cc3cc(N4CCC(N5CC(Oc6cccc(S(=O)(=O)N7CCC(Nc8ncc(Cl)cn8)CC7)c6)C5)CC4)ccc3C2=O)C(=O)N1` (stereo not shown) [Example 105, 3-(5-(4-(3-(3-((4-((5-chloropyrimidin-2-yl)amino)piperidin-1-yl)sulfonyl)phenoxy)-azetidin-1-yl)piperidin-1-yl)-1-oxoisoindolin-2-yl)piperidine-2,6-dione], in that order: 100 to 500 nM and 10 to 100 nM.
Regarding `Cn1nc(N2CCC(=O)NC2=O)c2ccc(C3CCN(CC4(C)CCN(c5cccc(S(=O)(=O)N6CCC(Nc7ncc(Cl)cn7)CC6)c5)CC4)CC3)cc21` [Example 206, 1-(6-(1-((1-(3-((4-((5-chloropyrimidin-2-yl)amino)piperidin-1-yl)sulfonyl)phenyl)-4-methylpiperidin-4-yl)methyl)piperidin-4-yl)-1-methyl-1H-indazol-3-yl)dihydropyrimidine-2,4(1H,3H)-dione], at CDK2 [1], the IC50 is 1 to 100 nM. The DC50 on CDK2 [2] is 10 to 100 nM.
On to `Cn1nc(N2CCC(=O)NC2=O)c2ccc(C3CCN(CC4CCN(c5cccc(S(=O)(=O)N6CCC(Nc7ncc(Cl)cn7)CC6)c5)CC4)CC3)c(Cl)c21` [Example 71, 1-(7-chloro-6-(1-((1-(3-((4-((5-chloro-pyrimidin-2-yl)amino)piperidin-1-yl)sulfonyl)phenyl)piperidin-4-yl)methyl)-piperidin-4-yl)-1-methyl-1H-indazol-3-yl)dihydropyrimidine-2,4(1H,3H)-dione], for which, at CDK2 [1], the IC50 lay in the range of 1 to 100 nM. For the same compound, the DC50 at CDK2 [2] was in the range of 1 to 10 nM.
With `Cn1nc(N2CCC(=O)NC2=O)c2cc(F)c(C3CCN(CC4CCN(c5cc(S(=O)(=O)N6CCC(Nc7ncc(Cl)cn7)CC6)ccc5C#N)CC4)CC3)cc21` [Example 153, 4-((4-((5-chloropyrimidin-2-yl)amino)piperidin-1-yl)sulfonyl)-2-(4-((4-(3-(2,4-dioxotetrahydropyrimidin-1(2H)-yl)-5-fluoro-1-methyl-1H-indazol-6-yl)piperidin-1-yl)methyl)piperidin-1-yl)benzonitrile], on CDK2 [1], the IC50 lay in the range of 1 to 100 nM. On CDK2 [2], the DC50 was 10 to 100 nM.
For `Cn1nc(N2CCC(=O)NC2=O)c2ccc(C3CCN(CC4(O)CCN(c5cc(S(=O)(=O)N6CCC(Nc7ncc(Cl)cn7)CC6)ccc5C#N)CC4)CC3)cc21` [Example 214, 4-((4-((5-chloropyrimidin-2-yl)amino)piperidin-1-yl)sulfonyl)-2-(4-((4-(3-(2,4-dioxotetrahydropyrimidin-1(2H)-yl)-1-methyl-1H-indazol-6-yl)piperidin-1-yl)methyl)-4-hydroxypiperidin-1-yl)benzonitrile], in that order: 1 to 100 nM and 10 to 100 nM.
